In ChEMBL document CHEMBL1149564, “Synthesis and bioevaluation of N-(arylalkyl)-homospermidine conjugates” (Bioorg Med Chem Lett, 2007):

What was measured:
B16 [1] = test: Cytotoxicity against mouse B16 cells by MTT assay; assay type: functional, cell-based
HeLa = test: Cytotoxicity against human HeLa cells by MTT assay; assay type: functional, cell-based
L1210 [2] = test: Cytotoxicity against mouse L1210 cells by MTT assay; assay type: functional, cell-based
L1210 [3] = test: Ratio of IC50 for mouse L1210 cells to IC50 for mouse L1210 cells in presence of […]; assay type: functional
B16 [4] = test: Ratio of IC50 for mouse B16 cells in presence of SPD to IC50 for mouse B16 cells; assay type: functional
B16 [5] = test: Cell cycle arrest in B16 cells by accumulation at G1 phase at 0.1 uM after 24 hrs; assay type: functional, Mus musculus
B16 [6] = test: Cell cycle arrest in B16 cells by accumulation at G2 phase at 0.1 uM after 24 hrs; assay type: functional, Mus musculus
B16 [7] = test: Cell cycle arrest in B16 cells by accumulation at S phase at 0.1 uM after 24 hrs; assay type: functional, Mus musculus
B16 [8] = test: Induction of apoptosis in B16 cells at 0.1 uM after 24 hrs; assay type: functional, Mus musculus
B16 [9] = test: Cell cycle arrest in B16 cells by accumulation at G1 phase at 1 uM after 24 hrs; assay type: functional, Mus musculus
B16 [10] = test: Cell cycle arrest in B16 cells by accumulation at G2 phase at 1 uM after 24 hrs; assay type: functional, Mus musculus
B16 [11] = test: Cell cycle arrest in B16 cells by accumulation at S phase at 1 uM after 24 hrs; assay type: functional, Mus musculus
B16 [12] = test: Induction of apoptosis in B16 cells at 1 uM after 24 hrs; assay type: functional, Mus musculus
FL5.12 [13] = test: Induction of apoptosis in BALB/c mouse FL5.12A pro-B cells in the presence of 0.1 ng/mL IL3; assay type: functional
FL5.12 [14] = test: Induction of apoptosis in BALB/c mouse FL5.12A pro-B cells; assay type: functional
FL5.12 [15] = test: Induction of apoptosis in BALB/c mouse FL5.12A pro-B cells in the presence of 2 ng/mL IL3; assay type: functional

SMILES	IC50 (B16 [1]) [µM]	IC50 (HeLa) [µM]	IC50 (L1210 [2]) [µM]	Ratio IC50 (L1210 [3])	Ratio IC50 (B16 [4])	further results
CCCCNCc1ccc2cc(OC)ccc2c1	15	12.5				
CCCCNCc1ccc(-c2ccccc2)cc1	10.8	10.9				
Cl.NCCCCNCCCCNCc1ccc2ccccc2c1	1.66	1.9	16.9	2.08	3.8	
Cl.NCCCCNCCCCNCc1ccc(-c2ccccc2)cc1	1.22	3.61	9.98	2.05	2.4	Activity (B16 [5]): 49.18%; Activity (B16 [6]): 10.45%; Activity (B16 [7]): 40.37%; Activity (B16 [8]): 17.35%; Activity (B16 [9]): 39.13%; Activity (B16 [10]): 0.04%; Activity (B16 [11]): 68.83%; Activity (B16 [12]): 42.47%
Cl.NCCCCNCCCCNCC1CCCc2ccccc21 (stereo not given)	6.96		14.8	1.63	1.7	
Cl.c1ccc2c(CNCCCCNCCCCN3CCNCC3)cccc2c1	5.46	3.6	> 50	>1	2.3	
Cl.c1ccc2cc(CNCCCCNCCCCN3CCNCC3)ccc2c1	2.89	3.7	35.8	1.53	9	
COc1ccc2cc(CNCCCCNCCCCN3CCNCC3)ccc2c1.Cl	> 50	11.3	15.1	1.76		
Cl.c1ccc(-c2ccc(CNCCCCNCCCCN3CCNCC3)cc2)cc1	> 50	26.8	20.3	2.71		
Cl.NCCCCNCCCCNCc1cccc2ccccc12	2.33	1.38	8.04	1.58	2.5	
Cl.c1ccc2c(CNCCCCNCCCCN3CCNCC3)c3ccccc3cc2c1	6.07	9.58	> 50	>2.5	2	
Cl.NCCCCNCCCCNCc1c2ccccc2cc2ccccc12	0.31	1.1	4.8	1.33	6.6	Activity (B16 [5]): 77.99%; Activity (B16 [6]): 10.72%; Activity (B16 [7]): 11.29%; Activity (B16 [8]): 12.49%; Activity (B16 [9]): 80.19%; Activity (B16 [10]): 10.1%; Activity (B16 [11]): 10.1%; Activity (B16 [12]): 37.26%
COc1ccc2cc(CNCCCCNCCCCN)ccc2c1.Cl	4.88	1.2	15.1	2.69	3.6	
N=C(N)NN [PIMAGEDINE]						Activity (FL5.12 [13]): 3%; Activity (FL5.12 [14]): 80%; Activity (FL5.12 [15]): 5%
